Literature values in patent publication US11833161B2, “Compositions and methods for treatment of skin infections” (priority 2015, dated 2023).

Legend:
warts (verrucae) = conditions: one case, 2 large mosaic verruca; previous treatments by 2 podiatrists and a dermatologist over 14 months
cutaneous warts = conditions: meta-analysis of trials, topical treatment of cutaneous warts; range in brackets

Compound | outcome of previous treatments in the difficult case (warts (verrucae)) | cure rate (cutaneous warts)
CN/C(=N/CCSCc1nc[nH]c1C)NC#N [cimetidine] | unsuccessful | –
O=C(O)c1ccccc1O [salicylic acid] | – | 52% (0-87%)
Vitamin A | unsuccessful | –
